Experimental data published in ChEMBL document CHEMBL1201862, “PubChem BioAssay data set” (2004).
Calls of active or inactive are those of the source.

What was measured:
[1] = molecular target: Long-chain-fatty-acid--AMP ligase FadD28 (Mycobacterium tuberculosis, UniProt P9WQ59); assay: Fluorescence polarization aasay to screen for inhibitors that compete for the binding of FadD28 to a bisubstrate Measured in Biochemical System Using Plate Reader - 2147-01_Inhibitor_Dose_CherryPick_Activity.; format: functional, Mycobacterium tuberculosis H37Rv
[2] = molecular target: T1, Short transient receptor potential channel 4 (Mus musculus, UniProt Q9QUQ5); assay: calcium entry via TRPC4 opening agents – cell-based, HEK293 TRPC4/mu-opioid, Fluo-4 calcium, dose response (AID 434937); format: functional
T1 sequence (Q9QUQ5 whole entry): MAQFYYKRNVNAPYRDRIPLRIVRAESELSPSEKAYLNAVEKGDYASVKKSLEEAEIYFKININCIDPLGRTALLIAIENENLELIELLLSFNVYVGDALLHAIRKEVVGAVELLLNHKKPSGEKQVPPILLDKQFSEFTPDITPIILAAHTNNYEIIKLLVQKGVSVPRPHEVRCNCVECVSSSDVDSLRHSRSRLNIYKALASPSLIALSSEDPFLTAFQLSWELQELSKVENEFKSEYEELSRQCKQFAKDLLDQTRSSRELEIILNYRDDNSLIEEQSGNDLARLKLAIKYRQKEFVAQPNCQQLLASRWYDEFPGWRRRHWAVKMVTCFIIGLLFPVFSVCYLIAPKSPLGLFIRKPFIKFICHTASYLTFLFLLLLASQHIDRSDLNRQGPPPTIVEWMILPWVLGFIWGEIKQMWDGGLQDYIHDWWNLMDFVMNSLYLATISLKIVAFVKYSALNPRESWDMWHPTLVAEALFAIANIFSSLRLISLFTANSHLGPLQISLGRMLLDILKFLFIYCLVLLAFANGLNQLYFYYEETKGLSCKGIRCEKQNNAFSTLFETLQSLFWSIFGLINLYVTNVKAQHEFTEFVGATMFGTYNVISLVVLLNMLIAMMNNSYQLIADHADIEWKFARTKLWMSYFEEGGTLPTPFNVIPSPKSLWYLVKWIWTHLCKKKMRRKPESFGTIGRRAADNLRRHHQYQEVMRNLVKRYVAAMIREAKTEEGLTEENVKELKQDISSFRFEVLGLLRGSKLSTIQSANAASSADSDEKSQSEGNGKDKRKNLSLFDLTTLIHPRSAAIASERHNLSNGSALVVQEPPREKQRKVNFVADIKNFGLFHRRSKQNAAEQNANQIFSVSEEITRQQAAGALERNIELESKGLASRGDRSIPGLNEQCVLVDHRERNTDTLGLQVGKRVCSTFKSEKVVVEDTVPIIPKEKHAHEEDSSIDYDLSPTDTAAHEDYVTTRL

cells [3] = format: functional, cell-based
[4] = molecular target: T2, Trace amine-associated receptor 1 (Homo sapiens, UniProt Q96RJ0); assay: Fluorescence-based cell-based high throughput dose response assay to identify agonists of the human trace amine associated receptor 1 (TAAR1).; format: functional
T2 sequence (Q96RJ0 whole entry): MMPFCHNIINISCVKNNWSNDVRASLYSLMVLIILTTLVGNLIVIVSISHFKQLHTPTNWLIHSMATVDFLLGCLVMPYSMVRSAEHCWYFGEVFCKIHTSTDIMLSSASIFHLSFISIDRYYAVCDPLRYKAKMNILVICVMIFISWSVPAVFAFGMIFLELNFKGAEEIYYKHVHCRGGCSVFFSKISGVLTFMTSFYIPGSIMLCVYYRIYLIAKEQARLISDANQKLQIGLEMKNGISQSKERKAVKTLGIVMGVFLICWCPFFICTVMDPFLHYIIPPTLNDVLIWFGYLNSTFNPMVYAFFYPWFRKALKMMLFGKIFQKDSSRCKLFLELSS

[5] = molecular target: T2, Trace amine-associated receptor 1; assay: Counterscreen for agonists of the human trace amine associated receptor 1 (hTAAR1): Fluorescence-based cell-based high throughput dose response assay to identify hTAAR1 agonist that also desensitize TAAR1 receptor response.; format: functional
cells [6] = format: functional, cell-based; remark: listed apart in the source
Galanin receptor type 3 = Galanin receptor type 3 (Homo sapiens, UniProt O60755); assay: Fluorescence-based cell-based primary high throughput dose response assay to identify antagonists of the Galanin Receptor 3 (GalR3).; format: functional
cells [7] = format: functional, cell-based; details: HEK-CNG
[8] = molecular target: T3, Tyrosine-protein phosphatase non-receptor type 11 (Homo sapiens, UniProt Q06124); assay: PTPN11 enzyme inhibitors – biochemical, selectivity assay for STEP inhibitor project, dose response (AID 602367); format: functional; details: read-out: IC50_Mean
T3 sequence (Q06124 whole entry): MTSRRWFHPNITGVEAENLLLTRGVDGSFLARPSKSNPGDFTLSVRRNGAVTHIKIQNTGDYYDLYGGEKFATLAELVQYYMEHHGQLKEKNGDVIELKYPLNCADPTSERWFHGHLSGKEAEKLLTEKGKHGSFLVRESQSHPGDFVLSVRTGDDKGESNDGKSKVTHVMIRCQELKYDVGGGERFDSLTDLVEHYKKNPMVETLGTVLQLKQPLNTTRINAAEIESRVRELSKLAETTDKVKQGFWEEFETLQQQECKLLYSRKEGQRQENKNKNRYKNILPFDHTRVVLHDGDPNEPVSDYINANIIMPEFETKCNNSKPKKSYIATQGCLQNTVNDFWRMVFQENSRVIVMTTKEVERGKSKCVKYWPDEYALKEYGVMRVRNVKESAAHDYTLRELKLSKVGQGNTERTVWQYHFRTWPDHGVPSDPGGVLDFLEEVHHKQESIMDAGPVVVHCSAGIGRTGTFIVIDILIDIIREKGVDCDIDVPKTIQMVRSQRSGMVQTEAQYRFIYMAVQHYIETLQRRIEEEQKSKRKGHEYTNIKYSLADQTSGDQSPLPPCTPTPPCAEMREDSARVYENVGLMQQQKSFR

[9] = molecular target: T4, Tyrosine-protein phosphatase non-receptor type 5 (Homo sapiens, UniProt P54829); assay: PTPN5 enzyme inhibition – biochemical, fluorescence intensity, uHTS hits, confirmation (AID 602372); format: functional; details: read-out: IC50_Mean
T4 sequence (P54829 whole entry): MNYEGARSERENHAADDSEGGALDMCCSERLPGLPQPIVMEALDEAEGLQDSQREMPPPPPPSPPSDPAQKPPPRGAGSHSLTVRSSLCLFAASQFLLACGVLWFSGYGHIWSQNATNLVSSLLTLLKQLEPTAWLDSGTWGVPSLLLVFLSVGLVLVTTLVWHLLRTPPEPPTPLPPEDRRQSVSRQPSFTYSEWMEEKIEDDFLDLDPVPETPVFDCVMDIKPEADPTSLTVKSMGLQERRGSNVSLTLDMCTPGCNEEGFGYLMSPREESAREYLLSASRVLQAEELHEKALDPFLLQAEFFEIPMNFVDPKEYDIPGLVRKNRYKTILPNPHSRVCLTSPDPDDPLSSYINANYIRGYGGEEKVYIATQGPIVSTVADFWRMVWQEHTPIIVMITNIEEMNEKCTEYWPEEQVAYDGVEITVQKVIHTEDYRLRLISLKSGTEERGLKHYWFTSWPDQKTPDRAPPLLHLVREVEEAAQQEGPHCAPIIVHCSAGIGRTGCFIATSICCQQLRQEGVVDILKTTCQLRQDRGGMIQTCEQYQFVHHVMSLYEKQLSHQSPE

[10] = molecular target: Dual specificity protein phosphatase 3 (Homo sapiens, UniProt P51452); assay: VHR phosphatase inhibition, dose response, selectivity assay for STEP inhibitor project, biochemical (AID 602374); format: functional; details: read-out: IC50_Mean
[11] = molecular target: T5, Tyrosine-protein phosphatase non-receptor type 22 (Homo sapiens, UniProt Q9Y2R2); assay: lymphoid phosphatase LYP inhibitors – biochemical, selectivity assay for STEP inhibitor project, dose response (AID 624241); format: functional
T5 sequence (Q9Y2R2 whole entry): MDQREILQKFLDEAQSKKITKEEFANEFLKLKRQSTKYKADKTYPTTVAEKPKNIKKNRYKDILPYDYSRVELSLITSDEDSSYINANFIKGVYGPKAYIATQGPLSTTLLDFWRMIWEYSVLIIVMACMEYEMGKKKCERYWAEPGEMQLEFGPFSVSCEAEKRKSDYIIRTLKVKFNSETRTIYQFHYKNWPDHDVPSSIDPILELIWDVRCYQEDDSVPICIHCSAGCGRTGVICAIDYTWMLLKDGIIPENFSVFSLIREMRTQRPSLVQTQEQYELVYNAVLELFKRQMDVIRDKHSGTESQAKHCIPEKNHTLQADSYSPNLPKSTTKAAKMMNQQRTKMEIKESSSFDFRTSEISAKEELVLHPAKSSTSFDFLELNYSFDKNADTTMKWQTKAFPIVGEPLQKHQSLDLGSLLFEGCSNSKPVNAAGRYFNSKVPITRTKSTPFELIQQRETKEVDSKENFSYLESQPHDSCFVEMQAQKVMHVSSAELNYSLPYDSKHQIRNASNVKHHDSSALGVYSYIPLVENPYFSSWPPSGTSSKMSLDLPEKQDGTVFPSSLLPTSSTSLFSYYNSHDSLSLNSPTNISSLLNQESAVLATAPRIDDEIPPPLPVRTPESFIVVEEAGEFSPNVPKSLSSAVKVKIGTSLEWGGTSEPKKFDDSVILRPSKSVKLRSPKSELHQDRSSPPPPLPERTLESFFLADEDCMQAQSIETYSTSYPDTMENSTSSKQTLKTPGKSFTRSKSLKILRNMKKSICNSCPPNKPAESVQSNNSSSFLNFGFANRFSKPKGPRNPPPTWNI

[12] = molecular target: T6, Methionyl-tRNA synthetase, putative (Trypanosoma brucei brucei, UniProt Q38C91); format: functional, Trypanosoma brucei brucei strain 927/4 GUTat10.1
T6 sequence (Q38C91 whole entry): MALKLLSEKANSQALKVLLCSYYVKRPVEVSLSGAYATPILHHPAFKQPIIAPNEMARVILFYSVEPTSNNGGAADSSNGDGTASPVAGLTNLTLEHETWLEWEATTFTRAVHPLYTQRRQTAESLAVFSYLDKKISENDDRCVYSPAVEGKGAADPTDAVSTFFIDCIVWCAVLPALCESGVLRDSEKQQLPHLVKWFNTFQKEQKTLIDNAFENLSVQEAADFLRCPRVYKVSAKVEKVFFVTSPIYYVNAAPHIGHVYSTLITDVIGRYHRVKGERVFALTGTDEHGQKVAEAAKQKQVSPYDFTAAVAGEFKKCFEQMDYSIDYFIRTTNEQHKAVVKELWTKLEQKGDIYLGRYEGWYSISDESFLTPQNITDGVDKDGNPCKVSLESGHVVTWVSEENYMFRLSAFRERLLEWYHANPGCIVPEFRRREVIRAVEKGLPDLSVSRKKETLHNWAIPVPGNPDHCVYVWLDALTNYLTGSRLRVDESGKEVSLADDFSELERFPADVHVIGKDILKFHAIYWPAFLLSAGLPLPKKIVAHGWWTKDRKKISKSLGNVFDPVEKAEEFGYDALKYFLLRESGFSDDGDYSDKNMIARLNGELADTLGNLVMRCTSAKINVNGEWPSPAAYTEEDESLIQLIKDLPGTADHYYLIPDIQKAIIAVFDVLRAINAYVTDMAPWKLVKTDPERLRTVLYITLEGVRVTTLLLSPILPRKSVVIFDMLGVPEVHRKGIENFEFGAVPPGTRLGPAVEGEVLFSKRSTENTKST

[13] = Counterscreen for inhibitors of Trypanosoma brucei methionyl tRNA synthetase (MetRS): Luminescence-based cell-based high throughput dose response assay to identify compounds that are cytotoxic to Jurkat human T lymphocyte cells.; format: functional
[14] = molecular target: T6, Methionyl-tRNA synthetase, putative; format: functional, Trypanosoma brucei brucei strain 927/4 GUTat10.1; remark: listed apart in the source
H9c2 = assay: cells; format: functional, cell-based; details: Rattus norvegicus, H9c2, Myocardium;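 also: confirmatory concentration-response retest of ultra-high-throughput screening hits for modulation of myocardial damage; cell death induced by hydrogen peroxide oxidative stress; compound pretreatment for 60 min then peroxide exposure for 2 h; potency is for protecting the cells against peroxide damage rather than for killing them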
Beta-lactamase [15] = molecular target: Beta-lactamase (Salmonella choleraesuis (strain SC-B67), UniProt Q5J463); assay: Epi-absorbance-based counterscreen for selective VIM-2 inhibitors: dose response biochemical high throughput screening assay to identify inhibitors of TEM-1 serine-beta-lactamase.
Beta-lactamase [16] = molecular target: T7, Beta-lactamase (Pseudomonas aeruginosa, UniProt Q79MP6); assay: inhibition of IMP-1 beta-lactamase activity – biochemical, epi-absorbance, selectivity assay for VIM-2 inhibitor project, dose response (AID 1920)
Beta-lactamase [17] = molecular target: T7, Beta-lactamase; assay: […] counterscreen for selective VIM-2 inhibitors: dose response biochemical high throughput screening assay to identify inhibitors of IMP-1 metallo-beta-lactamase.
Major prion protein = Major prion protein (Homo sapiens, UniProt P04156); format: functional, cell-based
cells [18] = assay: cells

Cc1noc(NS(=O)(=O)c2ccc(NC(=O)/C=C/c3ccc(C(C)C)cc3)cc2)c1C
AC50 [1]: 30.2 µM (active)

CCOC(=O)C1CCCN(C(c2ccccn2)c2c(C)[nH]c3ccccc23)C1 (configuration not stated)
EC50 [2]: 5.31 µM (active) | IC50 (cells [3]): > 29.9 µM (inactive) | EC50 [4]: 22.3 µM (inactive) | IC50 [5]: 2.65 µM (active) | EC50 (cells [6]): > 29.9 µM (inactive)

COC(=O)[C@]12CCCCC=C1N(Cc1cccc3ccccc13)C(=O)[C@H](CC(=O)NCc1ccc(OC)c(OC)c1)C2
IC50 (Galanin receptor type 3): > 29.9 µM (inactive) | EC50 (cells [7]): > 29.9 µM (inactive)

COc1ccc(NC(S)=NCCN2CCC(C)CC2)cc1Cl
IC50 [8]: 0.999 µM (active) | IC50 [9]: 11.2 µM (active) | IC50 [10]: 0.72 µM (active) | IC50 [11]: 43.9 µM (inactive)

COc1ccc(/C=C2\SC(=O)N=C2N)cc1
IC50 [12]: 119 µM (inactive) | IC50 [13]: 83.4 µM (inactive) | IC50 [14]: 7.57 µM (active)

OC(c1ccc(Cl)c(Cl)c1)c1nc(-c2ccc(Cl)cc2)c[nH]1 (configuration not stated)
IC50 [12]: 7.79 µM (active) | IC50 [13]: 51.5 µM (inactive) | IC50 [14]: 4.26 µM (active)

O=[N+]([O-])C(=C1SCCS1)C(=C(Cl)Cl)N1CCCCC1
AC50 [1]: > 100 µM (inactive)

Oc1nc2cccnc2c2ccsc12
IC50 (H9c2): > 79 µM (inactive) | IC50 (Galanin receptor type 3): > 29.9 µM (inactive) | EC50 (cells [7]): > 29.9 µM (inactive)

O=C(O)c1ccccc1Sc1ncnc2sc3c(c12)CCC3
IC50 (Beta-lactamase [15]): > 59.6 µM (inactive) | IC50 (Beta-lactamase [16]): > 59.6 µM (inactive) | IC50 (Beta-lactamase [17]): > 59.6 µM (inactive) | IC50 (Major prion protein): 7.05 µM (active) | IC50 (cells [18]): > 138 µM (inactive)
